The target in the test is T1, HMGA2-DNA interactions (Mus musculus, UniProt P52927).
T1 construct: made in house
T1 sequence (P52927 2-108 limits assumed): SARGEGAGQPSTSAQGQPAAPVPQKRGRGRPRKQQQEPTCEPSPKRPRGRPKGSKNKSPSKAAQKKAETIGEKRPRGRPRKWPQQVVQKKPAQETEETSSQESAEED
As to the kind of experiment: LANCE TR-FRET secondary assay of HMGA2 binding to FL814. Also on record: species or system mammalian; concentration or dose not given beside the values. As to conditions: cherry picked primary hits. As for the experimental part:
In this study, we also developed a LANCE time-resolved fluorescence energy transfer (TR-FRET) assay as a secondary assay for our screening. The His-tagged HMGA2 and biotinylated oligomer FL814 were linked to Europium-labeled anti-6 × His antibody and APC-labeled streptavidin, respectively. A series of DNA binding studies were performed to determine the optimal conditions for the secondary Assay (Fig. S2). After these experiments, 12.5 nM of FL814 and 62.5 nM of HMGA2 were chosen for the assay, which is the same for the primary assay. The assay tolerated up to 0.25% DMSO without any significant change in signal (Fig. S2c). For a counterscreen assay to exclude those compounds that nonspecifically bind to the protein surface, an AlphaScreen assay of H4 peptide binding to bromodomain-containing protein 4 (BRD4) was adopted (Fig. S2e). Since we are looking for compounds with anti-metastasis or anti-obesity activities, compounds with high levels of cytotoxicity are undesirable. […] Furthermore, potential DNA-binding compounds, i.e., DNA intercalators, minor groove binders, and DNA alkylating agents, can be identified by analyzing their chemical structures and will be excluded as well.
Using a Labcyte Echo 555 acoustic dispenser 5 nL of DMSO were added to columns 1–4 and 45–48 of a white 1536 well plate, while 5 nL of 2 mM compounds in DMSO were added to columns 5–44. Using a Beckman BioRAPTR FRD bulk reagent dispenser 1 µL of assay buffer (10 mM Tris, 300 mM NaCl and 0.005% Tween 20) was added to columns 1 and 2. Next, 1 µL of assay buffer containing 125 nM HMGA2 was added to columns 3–48 with a Beckman BioRAPTR FRD bulk reagent dispenser. Finally, 1 µL of assay buffer containing 25 nM FL814 was added to every well of the plate using a Beckman BioRAPTR FRD bulk reagent dispenser. The plate was then centrifuged at 200 × g for 1 min. After 30 min at room temperature 1 µL of assay buffer containing 250 nM LANCE Ultra ULight-anti-6xHIS and 1 µL of assay buffer containing 12 nM LANCE Eu-W1024 Streptavidin was dispensed into every well using a Beckman BioRAPTR FRD bulk reagent dispenser. The plates were then centrifuged at 200 × g for 1 min. After 1 h at room temperature the plates were read on a Perkin Elmer Envision multimode plate reader in TR-FRET mode (excitation @340 nm, first emission at @665 nm, second emission at 615 nm).

Where only a bound is given, the exact number is not on record here.

The text below walks through data of paper PMC7606612, “Identification of HMGA2 inhibitors by AlphaScreen-based ultra-high-throughput screening assays” (Scientific Reports, 2020).

For `Cc1ccc(C(=O)Nc2ccc(S(=O)(=O)O)c3cc(S(=O)(=O)O)cc(S(=O)(=O)O)c23)cc1NC(=O)c1cccc(NC(=O)Nc2cccc(C(=O)Nc3cc(C(=O)Nc4ccc(S(=O)(=O)O)c5cc(S(=O)(=O)O)cc(S(=O)(=O)O)c45)ccc3C)c2)c1` [suramin], the “inhibition of HMGA2-DNA interactions” value is listed as not below 50%.
